Measured values published in patent publication US12103919B2, “3-(5-oxy)-1-oxoisoindolin-2-yl)piperidine-2,6-dione derivatives and uses thereof” (NOVARTIS AG, priority 2021, dated 2024).

Experiments:
[1] = system: HbF; details: human primary erythroid cells; cited from earlier work
[2] = system: HbF; details: cited from earlier work
[3] = system: HBG1/2; assay: Analysis of HbF gene expression by RNA-seq after CRISPR/Cas9 knockout of WIZ in mPB CD34+ cells; type: cell-based, human; details: WIZ KO vs scrambled gRNA control, 7 days erythroid differentiation, FIG. 1A
Protocol: Mobilized peripheral blood (mPB) CD34+ cells (AllCells, LLC) were maintained in StemSpan™ serum-free expansion media (SFEM) ([…] Technologies Inc.) supplemented with 50 ng/mL each of rhTPO, rhlL-6, rhFLT3L, rhSCF for 2-3 days prior to shRNA transduction or targeted ribonucleoprotein (RNP) electroporation targeting WIZ. All cytokines were obtained from Peprotech®, Inc. Cell cultures were maintained at 37° C. and 5% CO2 in a humidified tissue culture incubator.
Alt-R CRISPR-Cas9 crRNA and tracrRNA (5′-[…]-3′; SEQ ID NO: 7) were purchased from Integrated DNA Technologies, Inc. Equimolar tracrRNA was annealed with WIZ targeting crRNA (Table 3) in Tris buffer (10 mM, pH 7.5) by heating at 95° C. for 5 minutes using a polymerase chain reaction (PCR) machine (Bio-Rad) followed by cooling to room temperature on the benchtop. Subsequently, a ribonucleoprotein (RNP) complex was generated by mixing annealed tracrRNA:crRNA with 6 ug of Cas9 at 37° C. for 5 minutes in 1× buffer containing HEPES (100 mM), KCl (50 mM), MgCl2 (2.5 mM), glycerol (0.03%), DTT (1 mM) and Tris pH 7.5 (2 mM). […]
Two independent, targeted CRISPR/Cas9 knockout (KO) of WIZ were done using WIZ_6 and WIZ_18 gRNAs or a non-targeting scrambled gRNA negative control in mPB CD34+ HSCs. […] The quality of isolated RNA was determined before sequencing using Agilent RNA 6000 Pico Kit (Agilent, catalogue #5067-1513). […]

Row | Molecule | HbF induction ex vivo [1] | HbF induction in vivo [2] | HBG1/2 expression upon erythroid differentiation [3]
1 | Nc1cccc2c1CN(C1CCC(=O)NC1=O)C2=O (stereo not drawn) [lenalidomide] | induce HbF ex vivo | induce HbF | –
2 | Nc1cccc2c1C(=O)N(C1CCC(=O)NC1=O)C2=O (stereo not drawn) [pomalidomide] | induce HbF ex vivo | induce HbF | –
3 | WIZ_6: WIZ targeting crRNA/gRNA, AACATCTTTCGGGCCGTAGG, SEQ ID NO 9 (listed as DNA, chemistry not given here) | – | – | upregulation of fetal hemoglobin genes (HBG1/2)
4 | WIZ_18: WIZ targeting crRNA/gRNA, AGTGGGTGCGGCACTTACAG, SEQ ID NO 14 (listed as DNA, chemistry not given here) | – | – | upregulation of fetal hemoglobin genes (HBG1/2)
